Assays:
[1] = biological target: Serine/threonine-protein kinase Nek7 (Homo sapiens) (UniProt Q8TDX7); assay: Inhibition of NEK7 (unknown origin) at 10 uM after 120 mins P33 radiolabeled kinase activity assay
[2] = biological target: RAC-gamma serine/threonine-protein kinase (Homo sapiens) (UniProt Q9Y243); assay: Inhibition of AKT3 (unknown origin) at 10 uM after 120 mins P33 radiolabeled kinase activity assay
[3] = biological target: Glycogen synthase kinase-3 alpha (Homo sapiens) (UniProt P49840); assay: Inhibition of GSK3alpha (unknown origin) at 10 uM after 120 mins P33 radiolabeled kinase activity assay
[4] = biological target: Calcium/calmodulin-dependent protein kinase type II subunit alpha (Homo sapiens) (UniProt Q9UQM7); assay: Inhibition of CAMK2alpha (unknown origin) at 10 uM after 120 mins P33 radiolabeled kinase activity assay
[5] = biological target: Non-receptor tyrosine-protein kinase TYK2 (Homo sapiens) (UniProt P29597); assay: Inhibition of TYK2 (unknown origin) at 10 uM after 120 mins P33 radiolabeled kinase activity assay
[6] = biological target: RAC-beta serine/threonine-protein kinase (Homo sapiens) (UniProt P31751); assay: Inhibition of AKT2 (unknown origin) at 10 uM after 120 mins P33 radiolabeled kinase activity assay
[7] = biological target: Rho-associated protein kinase 1 (Homo sapiens) (UniProt Q13464); assay: Inhibition of ROCK1 (unknown origin) at 10 uM after 120 mins P33 radiolabeled kinase activity assay
[8] = biological target: Calcium/calmodulin-dependent protein kinase kinase 2 (Homo sapiens) (UniProt Q96RR4); assay: Inhibition of CAMKK2 (unknown origin) at 10 uM after 120 mins P33 radiolabeled kinase activity assay
[9] = biological target: Epidermal growth factor receptor (Homo sapiens) (UniProt P00533); assay: Inhibition of EGFR (unknown origin) at 10 uM after 120 mins P33 radiolabeled kinase activity assay
[10] = biological target: Serine/threonine-protein kinase Sgk2 (Homo sapiens) (UniProt Q9HBY8); assay: Inhibition of SGK2 (unknown origin) at 10 uM after 120 mins P33 radiolabeled kinase activity assay
[11] = biological target: Tyrosine-protein kinase JAK3 (Homo sapiens) (UniProt P52333); assay: Inhibition of JAK3 (unknown origin) at 10 uM after 120 mins P33 radiolabeled kinase activity assay
[12] = biological target: LIM domain kinase 2 (Homo sapiens) (UniProt P53671); assay: Inhibition of LIMK2 (unknown origin) at 10 uM after 120 mins P33 radiolabeled kinase activity assay
[13] = biological target: Bone morphogenetic protein receptor type-2 (Homo sapiens) (UniProt Q13873); assay: Inhibition of BMPR2 (unknown origin) at 10 uM after 120 mins P33 radiolabeled kinase activity assay
[14] = biological target: CDK4/Cyclin D3 (Homo sapiens) (UniProt P11802+P30281); assay: Inhibition of CDK4/cyclin D3 (unknown origin) at 10 uM after 120 mins P33 radiolabeled kinase activity assay; type: protein-complex assay
[15] = biological target: Cyclin-Y/Cyclin-dependent kinase 16 (Homo sapiens) (UniProt Q00536+Q8ND76); assay: Inhibition of CDK16/cyclin Y (unknown origin) at 10 uM after 120 mins P33 radiolabeled kinase activity assay; type: protein-complex assay
[16] = biological target: Dual specificity protein kinase CLK2 (Homo sapiens) (UniProt P49760); assay: Inhibition of CLK2 (unknown origin) at 10 uM after 120 mins P33 radiolabeled kinase activity assay
[17] = biological target: Serine/threonine-protein kinase N2 (Homo sapiens) (UniProt Q16513); assay: Inhibition of PKN2 (unknown origin) at 10 uM after 120 mins P33 radiolabeled kinase activity assay
[18] = biological target: T1, Serine/threonine-protein kinase A-Raf (Homo sapiens) (UniProt P10398); assay: Inhibition of ARAF (unknown origin) at 10 uM after 120 mins P33 radiolabeled kinase activity assay
T1 sequence (whole entry): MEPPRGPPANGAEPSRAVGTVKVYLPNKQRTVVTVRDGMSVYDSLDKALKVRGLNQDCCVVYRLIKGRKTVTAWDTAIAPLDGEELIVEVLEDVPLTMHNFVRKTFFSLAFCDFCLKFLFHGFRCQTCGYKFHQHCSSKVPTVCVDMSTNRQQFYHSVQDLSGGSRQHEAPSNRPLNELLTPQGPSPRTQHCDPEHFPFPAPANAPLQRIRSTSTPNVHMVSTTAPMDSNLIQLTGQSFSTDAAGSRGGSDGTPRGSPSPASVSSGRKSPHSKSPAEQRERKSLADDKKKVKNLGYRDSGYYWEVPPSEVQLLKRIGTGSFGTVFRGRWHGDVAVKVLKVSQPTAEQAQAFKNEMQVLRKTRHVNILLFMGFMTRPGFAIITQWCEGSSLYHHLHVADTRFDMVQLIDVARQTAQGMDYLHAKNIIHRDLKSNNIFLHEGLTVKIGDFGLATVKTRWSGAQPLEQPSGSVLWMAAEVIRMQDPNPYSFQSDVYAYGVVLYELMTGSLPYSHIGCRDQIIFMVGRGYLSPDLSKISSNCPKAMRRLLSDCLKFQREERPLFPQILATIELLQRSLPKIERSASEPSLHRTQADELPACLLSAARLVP

[19] = biological target: Casein kinase II subunit alpha' (Homo sapiens) (UniProt P19784); assay: Inhibition of CK2alpha2 (unknown origin) at 10 uM after 120 mins P33 radiolabeled kinase activity assay
[20] = biological target: Calcium/calmodulin-dependent protein kinase type II subunit delta (Homo sapiens) (UniProt Q13557); assay: Inhibition of CAMK2delta (unknown origin) at 10 uM after 120 mins P33 radiolabeled kinase activity assay
[21] = biological target: Serine/threonine-protein kinase tousled-like 1 (Homo sapiens) (UniProt Q9UKI8); assay: Inhibition of TLK1 (unknown origin) at 10 uM after 120 mins P33 radiolabeled kinase activity assay
[22] = biological target: Dual specificity mitogen-activated protein kinase kinase 1 (Homo sapiens) (UniProt Q02750); assay: Inhibition of MEK1 (unknown origin) at 10 uM after 120 mins P33 radiolabeled kinase activity assay
[23] = biological target: Calcium/calmodulin-dependent protein kinase kinase 1 (Homo sapiens) (UniProt Q8N5S9); assay: Inhibition of CAMKK1 (unknown origin) at 10 uM after 120 mins P33 radiolabeled kinase activity assay
[24] = biological target: Lymphokine-activated killer T-cell-originated protein kinase (Homo sapiens) (UniProt Q96KB5); assay: Inhibition of PBK (unknown origin) at 10 uM after 120 mins P33 radiolabeled kinase activity assay
[25] = biological target: Interleukin-1 receptor-associated kinase 4 (Homo sapiens) (UniProt Q9NWZ3); assay: Inhibition of IRAK4 (unknown origin) at 10 uM after 120 mins P33 radiolabeled kinase activity assay
[26] = biological target: Testis-specific serine/threonine-protein kinase 6 (Homo sapiens) (UniProt Q9BXA6); assay: Inhibition of SSTK (unknown origin) at 10 uM after 120 mins P33 radiolabeled kinase activity assay
[27] = biological target: Tau-tubulin kinase 1 (Homo sapiens) (UniProt Q5TCY1); assay: Inhibition of TTBK1 (unknown origin) at 10 uM after 120 mins P33 radiolabeled kinase activity assay
[28] = biological target: Serine/threonine-protein kinase VRK2 (Homo sapiens) (UniProt Q86Y07); assay: Inhibition of VRK2 (unknown origin) at 10 uM after 120 mins P33 radiolabeled kinase activity assay

Chain of Calcium/calmodulin-dependent protein kinase type II subunit delta (Homo sapiens) (Q13557 whole entry): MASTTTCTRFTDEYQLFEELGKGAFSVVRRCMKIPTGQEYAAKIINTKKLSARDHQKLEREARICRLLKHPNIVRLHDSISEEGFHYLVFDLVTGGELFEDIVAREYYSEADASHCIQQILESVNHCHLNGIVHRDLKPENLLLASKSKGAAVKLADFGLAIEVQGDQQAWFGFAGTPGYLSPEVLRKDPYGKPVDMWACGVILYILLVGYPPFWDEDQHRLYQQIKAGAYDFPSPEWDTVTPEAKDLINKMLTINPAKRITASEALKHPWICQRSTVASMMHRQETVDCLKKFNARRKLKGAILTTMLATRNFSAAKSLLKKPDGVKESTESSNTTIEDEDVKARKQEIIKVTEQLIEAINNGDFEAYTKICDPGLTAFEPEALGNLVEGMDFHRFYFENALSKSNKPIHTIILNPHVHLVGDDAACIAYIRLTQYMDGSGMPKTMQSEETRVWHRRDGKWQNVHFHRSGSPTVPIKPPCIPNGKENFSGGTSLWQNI
Chain of Non-receptor tyrosine-protein kinase TYK2 (Homo sapiens) (P29597 whole entry): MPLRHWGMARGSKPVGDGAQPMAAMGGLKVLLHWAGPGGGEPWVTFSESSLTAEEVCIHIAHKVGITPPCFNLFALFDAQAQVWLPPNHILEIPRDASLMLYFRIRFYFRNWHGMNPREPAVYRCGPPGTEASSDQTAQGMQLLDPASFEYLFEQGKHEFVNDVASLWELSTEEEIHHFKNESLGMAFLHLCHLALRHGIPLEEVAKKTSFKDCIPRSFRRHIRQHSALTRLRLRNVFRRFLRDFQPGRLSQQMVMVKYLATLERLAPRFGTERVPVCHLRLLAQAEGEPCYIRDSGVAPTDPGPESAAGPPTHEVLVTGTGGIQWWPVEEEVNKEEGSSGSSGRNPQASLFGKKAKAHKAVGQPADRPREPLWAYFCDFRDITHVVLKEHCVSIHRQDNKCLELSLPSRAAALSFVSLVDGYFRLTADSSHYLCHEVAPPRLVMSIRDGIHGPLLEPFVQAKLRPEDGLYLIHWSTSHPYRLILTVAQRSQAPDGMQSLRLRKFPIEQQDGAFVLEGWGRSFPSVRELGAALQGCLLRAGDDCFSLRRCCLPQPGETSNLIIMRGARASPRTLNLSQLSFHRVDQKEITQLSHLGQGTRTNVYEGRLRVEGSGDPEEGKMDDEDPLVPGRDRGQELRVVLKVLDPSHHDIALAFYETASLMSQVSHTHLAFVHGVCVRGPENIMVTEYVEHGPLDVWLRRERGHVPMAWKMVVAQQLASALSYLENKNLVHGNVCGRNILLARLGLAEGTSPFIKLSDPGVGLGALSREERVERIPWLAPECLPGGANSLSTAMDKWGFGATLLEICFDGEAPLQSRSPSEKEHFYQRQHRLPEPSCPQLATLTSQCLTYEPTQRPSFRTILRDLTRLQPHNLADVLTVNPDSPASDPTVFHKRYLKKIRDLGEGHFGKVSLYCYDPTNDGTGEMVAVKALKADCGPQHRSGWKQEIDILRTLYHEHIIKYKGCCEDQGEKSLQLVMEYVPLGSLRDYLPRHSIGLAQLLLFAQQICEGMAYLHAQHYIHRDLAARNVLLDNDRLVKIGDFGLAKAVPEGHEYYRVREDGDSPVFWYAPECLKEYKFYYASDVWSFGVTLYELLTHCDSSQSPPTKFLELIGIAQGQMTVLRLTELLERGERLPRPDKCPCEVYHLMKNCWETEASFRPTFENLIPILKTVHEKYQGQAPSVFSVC
Chain of RAC-beta serine/threonine-protein kinase (Homo sapiens) (P31751 whole entry): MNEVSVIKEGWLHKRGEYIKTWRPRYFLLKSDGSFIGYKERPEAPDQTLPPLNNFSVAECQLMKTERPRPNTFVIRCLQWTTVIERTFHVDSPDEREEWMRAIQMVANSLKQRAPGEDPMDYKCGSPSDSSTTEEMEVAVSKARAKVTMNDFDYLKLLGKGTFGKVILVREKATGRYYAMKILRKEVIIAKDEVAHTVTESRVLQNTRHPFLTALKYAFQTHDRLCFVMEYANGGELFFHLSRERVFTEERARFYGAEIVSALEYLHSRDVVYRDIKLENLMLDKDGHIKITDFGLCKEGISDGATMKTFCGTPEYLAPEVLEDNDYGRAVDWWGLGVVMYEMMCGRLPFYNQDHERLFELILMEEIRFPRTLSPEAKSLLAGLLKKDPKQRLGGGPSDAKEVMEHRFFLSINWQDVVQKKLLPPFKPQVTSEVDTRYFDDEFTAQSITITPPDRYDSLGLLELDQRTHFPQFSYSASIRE
Chain of Serine/threonine-protein kinase N2 (Homo sapiens) (Q16513 whole entry, looked up): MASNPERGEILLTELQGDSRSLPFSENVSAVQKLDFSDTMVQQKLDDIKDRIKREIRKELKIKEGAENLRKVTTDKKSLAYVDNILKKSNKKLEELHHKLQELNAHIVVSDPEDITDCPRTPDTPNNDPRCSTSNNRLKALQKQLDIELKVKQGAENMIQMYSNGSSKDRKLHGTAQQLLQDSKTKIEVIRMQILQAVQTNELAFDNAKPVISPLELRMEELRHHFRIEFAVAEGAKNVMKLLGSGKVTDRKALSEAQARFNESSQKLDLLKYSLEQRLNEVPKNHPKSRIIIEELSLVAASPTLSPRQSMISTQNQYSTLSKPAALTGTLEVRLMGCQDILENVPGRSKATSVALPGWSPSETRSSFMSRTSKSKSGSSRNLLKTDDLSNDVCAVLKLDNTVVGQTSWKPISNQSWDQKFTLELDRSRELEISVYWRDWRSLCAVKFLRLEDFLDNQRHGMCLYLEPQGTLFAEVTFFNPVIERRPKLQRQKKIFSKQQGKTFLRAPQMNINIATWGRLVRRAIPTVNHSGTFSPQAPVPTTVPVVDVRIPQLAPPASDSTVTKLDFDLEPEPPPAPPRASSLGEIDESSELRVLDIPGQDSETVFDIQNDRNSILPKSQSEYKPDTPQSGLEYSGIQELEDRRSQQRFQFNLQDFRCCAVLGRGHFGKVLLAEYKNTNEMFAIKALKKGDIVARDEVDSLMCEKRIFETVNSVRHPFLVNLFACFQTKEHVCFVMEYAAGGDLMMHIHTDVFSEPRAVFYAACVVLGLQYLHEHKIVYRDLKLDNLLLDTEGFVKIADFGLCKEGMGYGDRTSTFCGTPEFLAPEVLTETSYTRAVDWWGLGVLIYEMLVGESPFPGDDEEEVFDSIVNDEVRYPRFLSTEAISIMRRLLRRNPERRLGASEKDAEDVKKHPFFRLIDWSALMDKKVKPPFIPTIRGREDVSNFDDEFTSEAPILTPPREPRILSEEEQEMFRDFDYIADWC
Chain of Epidermal growth factor receptor (Homo sapiens) (P00533 whole entry): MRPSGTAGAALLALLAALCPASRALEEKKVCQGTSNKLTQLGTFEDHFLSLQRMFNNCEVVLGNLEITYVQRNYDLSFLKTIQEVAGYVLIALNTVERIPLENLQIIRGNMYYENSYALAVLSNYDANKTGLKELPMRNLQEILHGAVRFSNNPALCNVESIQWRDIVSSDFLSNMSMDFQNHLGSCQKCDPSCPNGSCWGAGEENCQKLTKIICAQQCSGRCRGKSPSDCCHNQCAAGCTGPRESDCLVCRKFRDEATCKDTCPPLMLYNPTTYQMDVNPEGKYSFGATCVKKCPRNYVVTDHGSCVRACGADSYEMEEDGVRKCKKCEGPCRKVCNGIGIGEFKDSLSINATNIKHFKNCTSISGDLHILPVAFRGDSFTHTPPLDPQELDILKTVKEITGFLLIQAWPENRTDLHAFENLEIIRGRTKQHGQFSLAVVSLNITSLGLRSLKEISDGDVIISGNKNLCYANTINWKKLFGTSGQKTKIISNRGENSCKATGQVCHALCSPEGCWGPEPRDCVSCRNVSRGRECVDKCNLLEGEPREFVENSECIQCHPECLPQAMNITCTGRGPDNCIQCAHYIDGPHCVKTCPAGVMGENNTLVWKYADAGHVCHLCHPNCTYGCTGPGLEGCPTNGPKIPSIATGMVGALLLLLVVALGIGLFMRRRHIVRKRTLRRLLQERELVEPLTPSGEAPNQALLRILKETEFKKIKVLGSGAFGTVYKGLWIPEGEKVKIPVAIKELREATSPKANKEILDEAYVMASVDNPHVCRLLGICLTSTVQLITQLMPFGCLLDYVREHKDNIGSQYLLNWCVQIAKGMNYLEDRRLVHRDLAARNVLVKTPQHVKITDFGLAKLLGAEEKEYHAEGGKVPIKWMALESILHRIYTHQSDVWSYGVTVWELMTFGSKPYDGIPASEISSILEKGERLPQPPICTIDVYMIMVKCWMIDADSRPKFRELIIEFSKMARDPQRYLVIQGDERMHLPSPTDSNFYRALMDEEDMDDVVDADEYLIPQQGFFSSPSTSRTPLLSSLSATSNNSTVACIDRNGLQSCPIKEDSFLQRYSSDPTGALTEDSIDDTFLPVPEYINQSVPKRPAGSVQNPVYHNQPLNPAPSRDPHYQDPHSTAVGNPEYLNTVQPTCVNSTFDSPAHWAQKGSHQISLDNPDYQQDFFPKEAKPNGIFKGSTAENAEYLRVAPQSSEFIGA
Chain of Dual specificity protein kinase CLK2 (Homo sapiens) (P49760 whole entry, looked up): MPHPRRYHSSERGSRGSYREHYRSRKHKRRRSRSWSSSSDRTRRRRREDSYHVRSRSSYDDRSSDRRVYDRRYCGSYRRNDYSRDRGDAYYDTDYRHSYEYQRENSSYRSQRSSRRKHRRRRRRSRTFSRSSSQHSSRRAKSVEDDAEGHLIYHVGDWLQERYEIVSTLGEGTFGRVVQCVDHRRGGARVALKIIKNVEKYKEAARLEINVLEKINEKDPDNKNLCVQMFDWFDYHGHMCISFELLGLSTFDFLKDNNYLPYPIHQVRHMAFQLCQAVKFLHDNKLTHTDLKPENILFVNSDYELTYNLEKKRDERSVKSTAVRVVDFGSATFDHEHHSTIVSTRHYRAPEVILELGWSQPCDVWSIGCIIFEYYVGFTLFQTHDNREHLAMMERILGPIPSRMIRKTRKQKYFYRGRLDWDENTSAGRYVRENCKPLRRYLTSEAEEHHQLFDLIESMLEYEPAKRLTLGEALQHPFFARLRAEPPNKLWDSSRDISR

Row | inhibition [1] | inhibition [2] | inhibition [3] | inhibition [4] | inhibition [5] | inhibition [6] | inhibition [7] | inhibition [8] | inhibition [9] | inhibition [10] | inhibition [11] | inhibition [12] | inhibition [13] | inhibition [14] | inhibition [15] | inhibition [16] | inhibition [17] | inhibition [18] | inhibition [19] | inhibition [20] | Structure (SMILES) | further results
1 | 33.7% | 6.38% | 98.9% | -6.79% | 54.8% | 21.6% | -6.9% | -1.4% | 88% | 50% | 15.9% | 99.1% | 19.6% | 26.6% | 92% | 24.5% | 26.8% | 97.7% | 39.8% | 7.04% | CS(=O)(=O)c1cccc(Nc2nccc(-c3sc(N4CCOCC4)nc3-c3cccc(NS(=O)(=O)c4c(F)cccc4F)c3)n2)c1 | inhibition [21]: -4.48%; inhibition [22]: 72.5%
2 | 6.02% | 6.03% | 5.43% | -3.57% | 13.2% | 18.9% | – | – | 7.68% | – | -7.14% | – | – | – | – | 7.06% | 28% | 75.8% | -7.82% | -0.09% | COCCNC(=O)c1ccc2c(c1)nc(-c1cnc(-c3ccc(Cl)cc3)[nH]1)n2CCOC | inhibition [23]: -7.72%; inhibition [24]: 11.6%; inhibition [25]: 13.9%; inhibition [26]: -0.51%; inhibition [27]: 7.91%; inhibition [28]: -4.56%; inhibition [21]: -7.05%
3 | – | – | 37.8% | – | 9.99% | 20.6% | 9.07% | 54.2% | 6.23% | 15.5% | – | 53.8% | 6.56% | 92.5% | 84.5% | 28.8% | 15.8% | 96.2% | – | 3.15% | CC(C)(C)c1cc(NC(=O)Nc2ccc(Oc3ccncc3)cc2)no1 | inhibition [23]: 60.5%; inhibition [24]: 12.2%; inhibition [25]: 24.7%; inhibition [26]: 7.1%; inhibition [27]: 8.16%; inhibition [28]: -5.34%; inhibition [22]: 22%
